Measured values: the supplement of paper PMC4862054

Columns and labels:
Conditions in all cases: 72 h
[1] = system: BT-549
How it was run: (§1)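 Viability of breast cancer cell lines was measured with CellTiter-Blue after 72 h of incubation on compound-loaded 384-well plates. Cells were seeded in 20 µl onto compound dissolved in 5 µl medium, and 2.5 µl reagent was added for 2 h at 37 °C before reading at 560/590 nm. EC50 was fitted from percent-inhibition dose-response data censored at the highest concentration, normalised per plate to vehicle and a positive kill control, with zero drug sensitivity score rows dropped.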

[2] = system: CAL-120
How it was run: as §1

[3] = system: HCC1143
How it was run: as §1

[4] = system: HCC1599
How it was run: as §1

[5] = system: HCC1937
How it was run: as §1

[6] = system: Hs578T
How it was run: as §1

[7] = system: MDA-MB-231
How it was run: as §1

[8] = system: MDA-MB-436
How it was run: as §1

[9] = system: MDA-MB-468
How it was run: as §1

[10] = system: SK-BR-3
How it was run: as §1

[11] = system: CAL-85-1
How it was run: (§2)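 Two sequential readouts followed a 72 h incubation of breast cancer cell lines with compound at 5 concentrations in 10-fold steps over a compound-specific 10,000-fold range: CellTox Green fluorescence (485/520 nm) for cell death, then CellTiter-Glo luminescence, after 10 min at room temperature, for viability. Each plate was normalised to 0.1 % DMSO and a positive kill control. Dose-response curves were fitted for EC50, censored at the top concentration.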

[12] = system: HDQ-P1
How it was run: as §2

[13] = system: MDA-MB-436; remark: listed apart in the source
How it was run: as §2

[14] = system: BT-474
How it was run: as §1

[15] = system: MFM-223
How it was run: as §1

[16] = system: BT-474; remark: listed apart in the source
How it was run: as §2

[17] = system: DU-4475
How it was run: as §2

[18] = system: HCC1937; remark: listed apart in the source
How it was run: as §2

[19] = system: MCF-10A
How it was run: as §2

[20] = system: MDA-MB-468; remark: listed apart in the source
How it was run: as §2

[21] = system: MFM-223; remark: listed apart in the source
How it was run: as §2

[22] = system: CAL-148
How it was run: as §2

[23] = system: BT-549; remark: listed apart in the source
How it was run: as §2

[24] = system: Hs578T; remark: listed apart in the source
How it was run: as §2

[25] = system: HCC1599; remark: listed apart in the source
How it was run: as §2

[26] = system: CAL-120; remark: listed apart in the source
How it was run: as §2

Compound	EC50, CellTiter-Blue viability [1]	EC50, CellTiter-Blue viability [3]	EC50, CellTiter-Blue viability [4]	EC50, CellTiter-Blue viability [5]	EC50, CellTiter-Blue viability [7]	EC50, CellTiter-Blue viability [8]	EC50, CellTiter-Blue viability [9]	EC50, CellTiter-Blue viability [10]	EC50, CellTiter-Blue viability [2]	EC50, CellTiter-Blue viability [6]	EC50, CellTox Green [11]	EC50, CellTox Green [12]	EC50, CellTiter-Blue viability [15]	other results
O=c1[nH]c(=O)n([C@H]2C[C@H](O)[C@@H](CO)O2)cc1F [Floxuridine]	804 nM	1630 nM	> 10000 nM	4070 nM	494 nM	182 nM	48.9 nM	60.3 nM	118 nM	501 nM	4650 nM	3070 nM		
O=c1[nH]cc(F)c(=O)[nH]1 [Fluorouracil]	1240 nM		2520 nM		2880 nM	7520 nM	> 10000 nM	532 nM	2530 nM					EC50, CellTox Green [13]: 7050 nM
COC1=C2C[C@@H](C)C[C@H](OC)[C@H](O)[C@@H](C)/C=C(\C)[C@H](OC(N)=O)[C@@H](OC)/C=C\C=C(/C)C(=O)NC(=CC1=O)C2=O [Geldanamycin]	46.8 nM	36.6 nM	270 nM	47.1 nM	63.1 nM	40.9 nM	64.7 nM	46.8 nM	38.1 nM	90.5 nM	2570 nM		90 nM	EC50, CellTiter-Blue viability [14]: 62 nM; EC50, CellTox Green [16]: 6830 nM; EC50, CellTox Green [17]: 4720 nM; EC50, CellTox Green [18]: 2450 nM; EC50, CellTox Green [19]: 2370 nM; EC50, CellTox Green [20]: 59.8 nM; EC50, CellTox Green [21]: 8020 nM
CS(=O)(=O)CCNCc1ccc(-c2ccc3ncnc(Nc4ccc(OCc5cccc(F)c5)c(Cl)c4)c3c2)o1 [Lapatinib]	4320 nM		191 nM	6280 nM	5820 nM	5900 nM	1560 nM	40.7 nM	6920 nM	3790 nM			9850 nM	EC50, CellTiter-Blue viability [14]: 137 nM; EC50, CellTox Green [19]: 678 nM
Cn1cnc2c(F)c(Nc3ccc(Br)cc3F)c(C(=O)NOCCO)cc21 [MEK-162]		9.21 nM	106 nM		364 nM							123 nM		EC50, CellTox Green [17]: 508 nM
CCOc1cc2ncc(C#N)c(Nc3ccc(OCc4ccccn4)c(Cl)c3)c2cc1NC(=O)/C=C/CN(C)C [Neratinib]											211 nM			EC50, CellTox Green [22]: 791 nM; EC50, CellTox Green [20]: 149 nM
COc1ccc(C2=N[C@@H](c3ccc(Cl)cc3)[C@@H](c3ccc(Cl)cc3)N2C(=O)N2CCNC(=O)C2)c(OC(C)C)c1 [Nutlin-3]														EC50, CellTox Green [22]: 9050 nM
COC(=O)C[C@](O)(CCCC(C)(C)O)C(=O)O[C@@H]1C(OC)=C[C@]23CCCN2CCc2cc4c(cc2[C@H]13)OCO4 [Omacetaxine]	32.1 nM	46.9 nM	18 nM	9.68 nM	36.3 nM	26.6 nM	35.7 nM	34.3 nM	16.9 nM	44 nM	41.7 nM	689 nM	45.3 nM	EC50, CellTiter-Blue viability [14]: 92.8 nM; EC50, CellTox Green [16]: 5890 nM; EC50, CellTox Green [23]: 260 nM; EC50, CellTox Green [22]: 2670 nM; EC50, CellTox Green [24]: 40.8 nM; EC50, CellTox Green [19]: 770 nM; EC50, CellTox Green [13]: 7440 nM; EC50, CellTox Green [20]: 388 nM; EC50, CellTox Green [21]: 63.7 nM
CC(=O)O[C@H]1C(=O)[C@@]2(C)[C@H]([C@H](OC(=O)c3ccccc3)[C@]3(O)C[C@H](OC(=O)[C@H](O)[C@@H](NC(=O)c4ccccc4)c4ccccc4)C(C)=C1C3(C)C)[C@]1(OC(C)=O)CO[C@@H]1C[C@@H]2O [Paclitaxel]	2.7 nM	7.4 nM	111 nM	4.22 nM	2.29 nM	4.49 nM	2.7 nM	2.93 nM	3.55 nM	5.2 nM	2.42 nM		4.49 nM	EC50, CellTiter-Blue viability [14]: 8.24 nM; EC50, CellTox Green [16]: 11.5 nM; EC50, CellTox Green [23]: 6.52 nM; EC50, CellTox Green [22]: 1.16 nM; EC50, CellTox Green [24]: 4.11 nM; EC50, CellTox Green [19]: 16.8 nM; EC50, CellTox Green [13]: 66.5 nM; EC50, CellTox Green [20]: 4.52 nM; EC50, CellTox Green [21]: 3.4 nM
O=C(c1ccc(OCCN2CCCCC2)cc1)c1c(-c2ccc(O)cc2)sc2cc(O)ccc12 [Raloxifene]												> 10000 nM		EC50, CellTox Green [25]: > 10000 nM
Cc1cc(C(C)Nc2ccccc2)c2nc(N3CCOCC3)cc(=O)n2c1 (configuration not stated) [TGX-221]												1 nM		
FC(F)c1nc2ccccc2n1-c1nc(N2CCOCC2)nc(N2CCOCC2)n1 [ZSTK474]														EC50, CellTox Green [16]: > 10000 nM; EC50, CellTox Green [21]: 1780 nM

The next lines start with results.

EC50, CellTiter-Blue viability [1]	EC50, CellTiter-Blue viability [3]	EC50, CellTiter-Blue viability [4]	EC50, CellTiter-Blue viability [5]	EC50, CellTiter-Blue viability [7]	EC50, CellTiter-Blue viability [8]	EC50, CellTiter-Blue viability [9]	EC50, CellTiter-Blue viability [10]	Compound	EC50, CellTiter-Blue viability [2]	EC50, CellTiter-Blue viability [6]	EC50, CellTox Green [11]	EC50, CellTox Green [12]	EC50, CellTiter-Blue viability [15]	other results
	14.2 nM			4.92 nM				Cn1c(=O)c(F)c(Nc2ccc(I)cc2F)c2c(=O)n(C[C@@H](O)CO)cnc21 [TAK-733]	401 nM	114 nM	181 nM		17.5 nM	EC50, CellTox Green [26]: > 1000 nM; EC50, CellTox Green [17]: 29.1 nM
126 nM	225 nM	110 nM	142 nM	110 nM	214 nM	442 nM		CCS(=O)(=O)c1cccc(-c2cc(C(=O)NC3CCN(C)CC3)c(C)c3[nH]c4ncc(C)cc4c23)c1 [TAK-901]	94.4 nM	125 nM			56.6 nM	EC50, CellTox Green [23]: 871 nM
